Experimental data as given in patent publication US9382306B2, “Octapeptide compounds derived from somatostatin and the therapeutic use thereof” (IPSEN PHARMA S.A.S., priority 2008, dated 2016).
Bridge positions count the residues as written; N and C are the ends. Square brackets hold non-standard residues; d marks the D form. Peptide text beside a SMILES is read from it. ξ: configuration not given here. d2Nal = N[C@H](Cc1ccc2ccccc2c1)C(=O)O; Thr(3ξ) = CC(O)[C@H](N)C(=O)O

Legend:
[1] = Static release test in PBS; format: physicochemical; conditions: 75 mM starting concentration, PBS pH 7.4, 37° C., % of free compound
Method: Release studies can be carried out on the octapeptide compounds according to the invention in the form of gel, solid, or in suspension. Two types of tests can be envisaged: static release tests and/or dynamic tests, both are briefly described hereafter.
The experimental parameters are common to both types of tests. The release medium is a liquid medium which is physico-chemically well-controlled, preferably a PBS (phosphate buffer saline) buffer adjusted to pH 7.4 and maintained at 37° C. The release curve is defined as the concentration of the studied compound in the dissolution medium (expressed in % of free compound) as a function of time (minutes, hours, days). To initiate the tests, a know quantity of sample is placed in the dissolution medium at time 0 (t=0 min/h/d), the sample being optionally conditioned in a device which is suited to its initial physical state (gel, solid, suspension). Measurements of the concentration of the compound in the release medium are carried out by one or more analytical methods which are well known in the state of the art such as UV-visible spectrophotometry or the HPLC (High Performance Liquid Chromatography). The parameters of the analytical methods are adjusted as a function of the physico-chemical characteristics of the compounds. […]

[2] = molecular target: T1, somatostatin receptors sub-type 5 (Homo sapiens, UniProt P35346); assay: Affinity for somatostatin receptors: inhibition of [125I-Tyr11]SRIF-14 binding to membranes of transfected CHO-K1 cells; conditions: competitive inhibition of [125I-Tyr11]SRIF-14 binding, 37° C.
T1 construct: expressed in transfected cells; membrane preparations
T1 sequence (P35346 whole entry): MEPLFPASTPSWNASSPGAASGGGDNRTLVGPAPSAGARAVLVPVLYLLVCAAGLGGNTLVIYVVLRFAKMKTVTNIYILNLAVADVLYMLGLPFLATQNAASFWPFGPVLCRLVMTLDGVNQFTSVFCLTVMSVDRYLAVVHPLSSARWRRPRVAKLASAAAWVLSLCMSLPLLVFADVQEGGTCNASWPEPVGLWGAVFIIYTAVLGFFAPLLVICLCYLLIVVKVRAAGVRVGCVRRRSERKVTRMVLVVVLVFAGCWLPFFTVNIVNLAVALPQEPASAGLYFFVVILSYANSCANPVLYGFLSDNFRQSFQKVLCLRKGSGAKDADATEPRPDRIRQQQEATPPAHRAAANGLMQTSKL

Row | Static release after 48 h [1] [%] | Ki [2] [µM] | Compound
1 | 85 |  | CC(C)[C@@H]1NC(=O)[C@H](CCCCN)NC(=O)[C@@H](C)NC(=O)[C@H](Cc2ccc(O)cc2)NC(=O)[C@@H](NC(=O)[C@H](N)Cc2ccc3ccccc3c2)CSSC[C@@H](C(=O)N[C@H](C(N)=O)C(C)O)NC1=O (stereo partly drawn) [Example 4, H-D-2-Nal^1-cyclo(Cys^2Tyr^3-D-Ala^4-Lys^5-Val^6Cys^7)-Thr^8-NH2.2 CH3COOH] (H-[d2Nal]CY[dA]KVC[Thr(3ξ)]-NH2; disulfide 2-7)
2 | 25 | ≤ 0.1 | CC(C)[C@@H]1NC(=O)[C@H](CCCCN)NC(=O)[C@@H](Cc2cccc3ccccc23)NC(=O)[C@H](Cc2ccc(O)cc2)NC(=O)[C@@H](NC(=O)[C@H](N)Cc2ccc3ccccc3c2)CSSC[C@@H](C(=O)N[C@H](C(N)=O)C(C)O)NC1=O (stereo partly drawn) [Example 6, H-D-2-Nal^1-cyclo(Cys^2Tyr^3-13-(1-naphthyl)-D-Ala^4-Lys^5-Val^6-Cys^7)-Thr^8-NH2.2 CH3COOH]
3 |  | ≤ 5 | CC(C)[C@@H]1NC(=O)[C@H](CCCCN)NC(=O)[C@@H](Cc2c[nH]cn2)NC(=O)[C@H](Cc2ccc(O)cc2)NC(=O)[C@@H](NC(=O)[C@H](N)Cc2ccc3ccccc3c2)CSSC[C@@H](C(=O)N[C@H](C(N)=O)C(C)O)NC1=O (stereo partly drawn) [Example 3, H-D-2-Nal^1-cyclo(Cys^2-Tyr^3-D-His^4-Lys^5-Val^6-Cys^7)-Thr^8-NH2.2 CH3COOH] (H-[d2Nal]CY[dH]KVC[Thr(3ξ)]-NH2; disulfide 2-7)
